Data: US20230091047A1 (priority 2019, published 2023)
Like-named read-outs stand apart in the source and are kept apart here.

Key:
[1] = system: HBV (HepG2.117 cell line, inducibly HBV producing); test: Anti-HBV activity: intracellular HBV DNA by real-time PCR in HepG2.117 cells after 3 days of treatment; type: cell-based, hepatitis B virus
Summary of the method: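 Readout is intracellular HBV DNA, measured by real-time PCR with HBV-specific primers and probe after 3 days of exposure to serial compound dilutions. Cells are the stable HepG2.117 line, where HBV replication is induced in the absence of doxycycline.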

[2] = in vitro; type: cell-based; details: human, HepG2 or HepG2.117 cells, ATPlite, mean value; for CC50 at 4 days: 4-days incubation (values marked with *)
Summary of the method: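 Luminescent ATP quantitation served as the viability endpoint following a 3- or 4-day incubation with test compounds.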

[3] = Hepatitis B virus, HepG2.117, 72 h, HepG2.117 cells, 3 days of treatment, intracellular HBV DNA by real-time PCR; mean value; read-out: EC50 (μM, mean value)
[4] = 3-days incubation (unmarked values)
[5] = Hepatitis B virus, HepG2.117, 72 h, HepG2.117 cells, intracellular HBV DNA by real-time PCR, 3 days of treatment, mean value; read-out: EC50 (μM, mean value)
[6] = 3-days incubation (not marked with *)

SMILES | EC50 [1, 3] | CC50 at 3 days [2, 4] | EC50 [1, 5] | CC50 at 3 days [2, 6] | CC50 at 4 days [2]
COc1ccc(CNc2nc3c(c(=O)[nH]2)CCN(C(=O)c2ccc(Br)c(F)c2)C3)cc1 [Compound C69, 7-(4-bromo-3-fluorobenzoyl)-2-{[(4-methoxyphenyl)methyl]amino}-5,6,7,8-tetrahydropyrido[3,4-d]pyrimidin-4(3H)-one] | 10 µM | 21 µM |  |  | 
CNC(=O)c1ccc(-n2c(N[C@@H](C)c3cccc(C(F)F)c3)nc3c(c2=O)C[C@@H](C)N(C(=O)c2ccc(Cl)c(Cl)c2)C3)cc1 (single isomer, unassigned) [Compound C660b] |  |  | 0.32 µM | 27.5 µM | 
CNC(=O)c1ccc(-n2c(Nc3ccon3)nc3c(c2=O)C[C@@H](C)N(C(=O)c2ccc(Cl)c(Cl)c2)C3)cc1 [Compound C278, 4-[(6R)-7-(3,4-dichlorobenzoyl)-6-methyl-2-[(1,2-oxazol-3-yl)amino]-4-oxo-5,6,7,8-tetrahydropyrido[3,4-d]pyrimidin-3(4H)-yl]-N-methylbenzamide] | 11 µM | > 50 µM |  |  | 
CNC(=O)c1ccc(-n2c(NC(C)C)nc3c(c2=O)C[C@@H](C)N(C(=O)c2ccc(Br)cc2OC(F)F)C3)cc1 [Compound C522] |  |  | 0.77 µM | > 50 µM | 
COc1ccc(CNc2nc3c(c(=O)n2-c2ccccc2OC)CCN(C(=O)c2ccc(Cl)c(Cl)c2)C3)cc1 [Compound C1, 7-(3,4-dichlorobenzoyl)-3-(2-methoxyphenyl)-2-{[(4-methoxyphenyl)methyl]amino}-5,6,7,8-tetrahydropyrido[3,4-d]pyrimidin-4(3H)-one] | 1.47 µM | > 50 µM |  |  | 
CC(C)Nc1nc2c(c(=O)n1-c1ccc(C(=O)NC3(C(=O)O)CC3)cc1)C[C@@H](C)N(C(=O)c1ccc(Cl)c(Cl)c1)C2 [Compound C266, 1-{4-[(6R)-7-(3,4-dichlorobenzoyl)-6-methyl-4-oxo-2-[(propan-2-yl)amino]-5,6,7,8-tetrahydropyrido[3,4-d]pyrimidin-3(4H)-yl]benzamido}cyclopropane-1-carboxylic acid] | 13.4 µM | > 50 µM |  |  | 
COc1ccccc1-n1c(NCc2cscn2)nc2c(c1=O)CCN(C(=O)c1ccc(Cl)c(Cl)c1)C2 [Compound C16, 7-(3,4-dichlorobenzoyl)-3-(2-methoxyphenyl)-2-{[(1,3-thiazol-4-yl)methyl]amino}-5,6,7,8-tetrahydropyrido[3,4-d]pyrimidin-4(3H)-one] | 2.29 µM |  |  |  | 45.3 µM
CC(C)Nc1nc2c(c(=O)n1-c1ccc(-c3nccn3C)cc1)C[C@@H](C)N(C(=O)c1ccc(Cl)c(Cl)c1)C2 [Compound C192, (6R)-7-(3,4-dichlorobenzoyl)-6-methyl-3-[4-(1-methyl-1H-imidazol-2-yl)phenyl]-2-[(propan-2-yl)amino]-5,6,7,8-tetrahydropyrido[3,4-d]pyrimidin-4(3H)-one] | 0.13 µM | 36.1 µM |  |  | 
CNC(=O)c1ccc(-n2c(NC(C)C)nc3c(c2=O)C[C@@H](C)N(C(=O)c2cc4ccc(Br)c(F)c4[nH]2)C3)cc1 [Compound C568] |  |  | 0.02 µM | 25.8 µM | 
COc1ccccc1-n1c(NCC(C)C)nc2c(c1=O)CCN(C(=O)c1ccc(Cl)c(Cl)c1)C2 [Compound C22, 7-(3,4-dichlorobenzoyl)-3-(2-methoxyphenyl)-2-[(2-methylpropyl)amino]-5,6,7,8-tetrahydropyrido[3,4-d]pyrimidin-4(3H)-one] | 21.7 µM |  |  |  | 26.2 µM
CNC(=O)c1ccc(-n2c(NC(C)C)nc3c(c2=O)C[C@@H](C)N(C(=O)c2cc4ccc(Cl)c(F)c4[nH]2)C3)cc1 [Compound C594] |  |  | 0.04 µM | 26.1 µM | 
Cc1cc(-c2ccc(-n3c(NC(C)C)nc4c(c3=O)C[C@@H](C)N(C(=O)c3ccc(Cl)c(Cl)c3)C4)cc2)n[nH]1 [Compound C243, (6R)-7-(3,4-dichlorobenzoyl)-6-methyl-3-[4-(5-methyl-1H-pyrazol-3-yl)phenyl]-2-[(propan-2-yl)amino]-5,6,7,8-tetrahydropyrido[3,4-d]pyrimidin-4(3H)-one] | 0.23 µM | 28.7 µM |  |  | 
CNC(=O)[C@H]1CC[C@H](n2c(N[C@@H](C)c3ccc(OC(F)(F)F)cc3)nc3c(c2=O)C[C@@H](C)N(C(=O)c2ccc(Cl)c(Cl)c2)C3)CC1 [Compound C632] |  |  | 0.12 µM | 6.2 µM | 
CC(C)Nc1nc2c(c(=O)n1-c1ccc(-c3cc[nH]n3)cc1)C[C@@H](C)N(C(=O)c1ccc(Cl)c(Cl)c1)C2 [Compound C241, (6R)-7-(3,4-dichlorobenzoyl)-6-methyl-2-[(propan-2-yl)amino]-3-[4-(1H-pyrazol-3-yl)phenyl]-5,6,7,8-tetrahydropyrido[3,4-d]pyrimidin-4(3H)-one] | 0.19 µM | 33.1 µM |  |  | 
CNC(=O)c1noc2cc(-n3c(NC(C)C)nc4c(c3=O)C[C@@H](C)N(C(=O)c3ccc(Cl)c(Cl)c3)C4)ccc12 [Compound C638] |  |  | 0.14 µM | > 50 µM | 
CNC(=O)c1ccc(-n2c(NCc3nnc(C(C)C)[nH]3)nc3c(c2=O)C[C@@H](C)N(C(=O)c2ccc(Cl)c(Cl)c2)C3)cc1 [Compound C545] |  |  | > 25 µM | > 50 µM | 

SMILES | EC50 [1, 3] | CC50 at 3 days [2, 4] | EC50 [1, 5] | CC50 at 3 days [2, 6] | CC50 at 4 days [2]
CNC(=O)c1ccc(-n2c(NC(C)C)nc3c(c2=O)C[C@@H](C)N(C(=O)c2cc4c(Br)c(C)ccc4[nH]2)C3)cc1 [Compound C471] |  |  | 0.25 µM | 21.6 µM | 
CC(=O)Nc1ccc(-n2c(N[C@H](C)c3ccc4[nH]ncc4c3)nc3c(c2=O)C[C@@H](C)N(C(=O)c2ccc(Cl)c(Cl)c2)C3)cc1 (single isomer, unassigned) [Compound C462a] |  |  | 1.24 µM | > 50 µM | 
CNC(=O)c1ccc(-n2c(N[C@@H](C)c3ccc(C#N)cc3)nc3c(c2=O)C[C@@H](C)N(C(=O)c2ccc(Cl)c(Cl)c2)C3)cc1 (single isomer, unassigned) [Compound C441b] |  |  | 2.75 µM | > 50 µM | 
CC(C)NC(=O)c1ccc(-n2c(NC(C)C)nc3c(c2=O)C[C@@H](C)N(C(=O)c2ccc(Cl)c(Cl)c2)C3)cn1 [Compound C227, 5-[(6R)-7-(3,4-dichlorobenzoyl)-6-methyl-4-oxo-2-[(propan-2-yl)amino]-5,6,7,8-tetrahydropyrido[3,4-d]pyrimidin-3(4H)-yl]-N-(propan-2-yl)pyridine-2-carboxamide] | 0.18 µM | > 50 µM |  |  | 
CNC(=O)c1ccc(-n2c(NC(C)C)nc3c(c2=O)C[C@@H](C)N(C(=O)c2ccc(Cl)c(C(F)F)c2)C3)c(Cl)c1 (single isomer, unassigned) [Compound C685a] |  |  | 0.03 µM | > 50 µM | 
CNC(=O)c1cc(-n2c(NC(C)C)nc3c(c2=O)C[C@@H](C)N(C(=O)c2ccc(Cl)c(C(F)F)c2)C3)n(C)n1 [Compound C672] |  |  | 0.09 µM | > 50 µM | 
CNC(=O)c1ccc(-n2c(NC(C)C)nc3c(c2=O)C[C@@H](C)N(C(=O)c2cc(F)c(C(F)(F)F)c(F)c2)C3)cc1 [Compound C476] |  |  | 0.12 µM | > 50 µM | 
CNC(=O)c1ccc(-n2c(NC(C)C)nc3c(c2=O)C[C@@H](C)N(C(=O)c2ccc(Br)cc2OC)C3)cc1 [Compound C513] |  |  | 22.1 µM | > 50 µM | 
CNC(=O)c1ccc(-n2c(N[C@H](C)c3cccc(C(F)F)c3)nc3c(c2=O)C[C@@H](C)N(C(=O)c2ccc(Cl)c(Cl)c2)C3)cc1 (single isomer, unassigned) [Compound C660a] |  |  | 1.3 µM | > 50 µM | 
CNC(=O)c1cc(-n2c(N[C@@H](C)c3ccc(C(F)(F)F)cc3)nc3c(c2=O)C[C@@H](C)N(C(=O)c2ccc(Cl)c(Cl)c2)C3)[nH]n1 [Compound C630] |  |  | 0.11 µM | 20.7 µM | 
CC(C)Nc1ncc(-n2c(NC(C)C)nc3c(c2=O)C[C@@H](C)N(C(=O)c2ccc(Cl)c(Cl)c2)C3)cn1 [Compound C279, (6R)-7-(3,4-dichlorobenzoyl)-6-methyl-2-[(propan-2-yl)amino]-3-{2-[(propan-2-yl)amino]pyrimidin-5-yl}-5,6,7,8-tetrahydropyrido[3,4-d]pyrimidin-4(3H)-one] | 0.31 µM | > 46 µM |  |  | 
CNC(=O)c1ccc(-n2c(N[C@H](C)CC(=O)O)nc3c(c2=O)C[C@@H](C)N(C(=O)c2ccc(Cl)c(Cl)c2)C3)cc1 [Compound C336, (3R)-3-({(6R)-7-(3,4-dichlorobenzoyl)-6-methyl-3-[4-(methylcarbamoyl)phenyl]-4-oxo-3,4,5,6,7,8-hexahydropyrido[3,4-d]pyrimidin-2-yl}amino)butanoic acid] | 7.66 µM | > 50 µM |  |  | 
CNC(=O)c1ccc(-n2c(N3CCOC(C)C3)nc3c(c2=O)C[C@@H](C)N(C(=O)c2ccc(Cl)c(Cl)c2)C3)cc1 (stereo partly shown) [Compound C470] |  |  | > 25 µM | > 50 µM | 
CC(C)Nc1nc2c(c(=O)n1-c1ccc(-n3ccnn3)cc1)C[C@@H](C)N(C(=O)c1ccc(Cl)c(Cl)c1)C2 [Compound C430] |  |  | 0.06 µM | > 50 µM | 
CC(C)Nc1nc2c(c(=O)n1-c1ccc(C(=O)N3CCN(C)CC3)cc1)C[C@@H](C)N(C(=O)c1ccc(Cl)c(Cl)c1)C2 [Compound C169, (6R)-7-(3,4-dichlorobenzoyl)-6-methyl-3-[4-(4-methylpiperazine-1-carbonyl)phenyl]-2-[(propan-2-yl)amino]-5,6,7,8-tetrahydropyrido[3,4-d]pyrimidin-4(3H)-one] | 0.15 µM | 30.7 µM |  |  | 
CC(C)Nc1nc2c(c(=O)n1-c1ccc(S(=O)(=O)NC(C)C)cc1)C[C@@H](C)N(C(=O)c1ccc(Cl)c(Cl)c1)C2 [Compound C388] |  |  | 0.62 µM | > 50 µM | 
